The data set in a line: CCK-8 viability assay. The class given is cell-based. To be noted: human, primary human chondrocytes; read-out: Mean % relative viability. The procedure: b) The viability of human primary chondrocytes was evaluated following incubation with increasing concentrations of either the pure Naringin (S1) or the nanosystems (Samples S2 and S3) at 2-10-50µM of encapsulated Naringin (1:5 serial dilutions) for 72h (higher concentrations were not used because the nanosystems become insoluble and aggregates sediment on the cell monolayer). For S2 this corresponded to 6,4 µg/ml (for 2 µM of Naringin), 32 µg/ml (for 10 µM of Naringin) and 158 µg/ml (for 50 µM of Naringin) respectively, of total NP concentration. For S3 (CS[PLA[NAR]]) the total NP concentrations to provide the same µM of encapsulated Naringin were 14,4 / 72 / 360 µg/m). As control for the nanosystems, a blank PLA nanoparticle preparation coated with chitosan (S4) was used, at the same µg/ml polymer concentration like the ones used to achieve the 2-10-50µM range for Naringin (the difference being that the blank contains no Naringin). Finally, the blank S4 was used at the 14,4/72/360 µg/ml concentration range (1:5 serial dilutions). Following incubation, the CCK-8 viability kit was used according to manufacturer's instructions (Sigma, 96992-500TESTS-F). Macroscopical and microscopical observation confirmed the proper complete solubility and dispersion of the Nanoparticles. Importantly, healthy cell morphology was observed (spindle-like attached cells with several processes) with concomitant absence of undissolved material.
Table 5. Effect of the natural products and the nanosystems on the relative cell viability of primary human chondrocytes. Measurements obtained using the CCK-8 viability kit. Values normalized to positive control (PC; set to 100; arbitrary unit). Samples' coding: S1= pure Naringin, S2=Naringin encapsulated in PLA nanoparticles [PLA[NAR]], S3=Naringin encapsulated in PLA nanoparticles coated with chitosan CS[PLA[NAR]], and S4=Blank PLA nanoparticles coated with chitosan, CS(PLA[---]].
(In general: Tetrazolium dyes change colour on reduction, which living cells bring about.)

Turning to `C[C@@H]1O[C@@H](O[C@H]2[C@H](Oc3cc(O)c4c(c3)O[C@H](c3ccc(O)cc3)CC4=O)O[C@H](CO)[C@@H](O)[C@@H]2O)[C@H](O)[C@H](O)[C@H]1O` [S1 [NAR], Naringin], the viability at 72 h, 10 µM is 136%; the viability at 72 h, 50 µM is 130%; the viability at 72 h, 200 µM was found to be 111%.

The term viability denotes a read-out of living cells in per cent, often relative to untreated cells.

The record behind these values is patent EP4385495A1, “NANOSYSTEMS FOR THE ENCAPSULATION OF THERAPEUTIC AGENTS” (National Technical University of Athens, priority 2022, dated 2024).
